{
  "source": "patent US20200254002A1",
  "about": "“COMBINATION THERAPIES FOR TREATING MUSCULAR DYSTROPHY” (SAREPTA THERAPEUTICS, INC., priority 2017, published 2020)",
  "origin": "cited, not measured here",
  "key": {"[1]": {"details": "phase I clinical program in adults"}, "cNF-κB": {"tested_on": "cNF-κB", "details": "in vitro"}, "ryanodine receptor": {"tested_on": "ryanodine receptor", "details": "patient cells and a mouse model of DMD"}, "[2]": {"tested_on": "exon 53 of dystrophin pre-mRNA", "details": "for Exon skipping in DMD patients: all 25 patients, at least 48 weekly doses"}, "dystrophin": {"tested_on": "dystrophin", "details": "DMD patients"}, "[3]": {"tested_on": "normal human skeletal muscle cells or muscle cells from DMD patients", "details": "RT-PCR and Western blot"}, "human DMD transcript": {"tested_on": "human DMD transcript", "details": "hDMD mouse model"}, "immune response": {"tested_on": "immune response", "details": "rat, in vivo"}, "[4]": {"details": "Part 2/Pl patients, 48-51 weeks"}, "[5]": {"details": "Part 1 patients, 60-76 weeks dosing"}, "[6]": {"details": "Part 2 patients, ~48-51 weeks dosing"}},
  "note": "“Also recorded” adds a separate entry of the source. Read-outs that look alike come from different tables or passages of the source.",
  "data": [
    {"molecule": "CC/C=C\\C/C=C\\C/C=C\\C/C=C\\C/C=C\\C/C=C\\CCC(=O)NCCNC(=O)c1ccccc1O", "note": "[CAT-1004, N-(2-[(4Z,7Z,10Z,13Z,16Z,19Z)-docosa-4,7,10,13,16,19-hexaenamido]ethyl)-2-hydroxybenzamide]", "values": [
      {"measurement": "Safety and tolerability", "setting": "[1]", "value": "safe, well tolerated"}
    ]},
    {"molecule": "CC/C=C\\C/C=C\\C/C=C\\C/C=C\\C/C=C\\CCCC(=O)NCCNC(=O)c1ccccc1O", "note": "[CAT-1041]", "values": [
      {"measurement": "cNF-κB activation", "setting": "cNF-κB", "value": "inhibit cNF-κB activation in vitro"},
      {"measurement": "Dystrophic phenotype", "setting": "NF-κB p65; GRMD dog, long-term treatment", "value": "improves the phenotype"},
      {"measurement": "Diaphragm function", "setting": "NF-κB p65; dog DMD model", "value": "improved diaphragm function"},
      {"measurement": "Exercise endurance", "setting": "Mdx mice; mdx mice", "value": "increased exercise endurance"},
      {"measurement": "Inflammation and fibrosis", "setting": "Mdx mice; mdx mice", "value": "reduced inflammation and fibrosis"},
      {"measurement": "Muscle fibrosis", "setting": "Mdx mice; mdx mice, long-term studies", "value": "reduces muscle fibrosis"},
      {"measurement": "Muscle function", "setting": "Mdx mice; mdx mice, long-term studies", "value": "preserves muscle function"},
      {"measurement": "Skeletal muscle weight", "setting": "Mdx mice; mdx mice, long-term studies", "value": "increases skeletal muscle weight"},
      {"measurement": "Dystrophic phenotype", "setting": "Mdx mice; mdx mouse, long-term treatment", "value": "improves the phenotype"},
      {"measurement": "Diaphragm function", "setting": "Mdx mice; mouse DMD model", "value": "improved diaphragm function"}
    ]},
    {"molecule": "O=C1CN(/N=C/c2ccc(-c3ccc([N+](=O)[O-])cc3)o2)C(O)=N1", "note": "[dantrolene]", "values": [
      {"measurement": "Antisense-mediated exon skipping", "setting": "ryanodine receptor", "value": "enhance antisense-mediated exon skipping"}
    ]},
    {"molecule": "all-P-ambo-[P,2′,3′-trideoxy-P-(dimethylamino)-2′,3′-imino-2′,3′-seco](2′a[…]5′)(GTTGCCTCCGGTTCTGAAGGTGTTC) 5′-[4-({2-[2-(2-hydroxyethoxy)ethoxy]ethoxy}carbonyl)-N,N-dimethylpiperazine-1-phosphonamidate] [SRP-4053]", "values": [
      {"measurement": "Decrease from Baseline (RT-PCR, patients)", "setting": "[2]; All patients", "value": 0},
      {"measurement": "Fold Increase (RT-PCR exon skipping)", "setting": "[2]; All patients", "value": 7.3},
      {"measurement": "Increase > 0.1 from Baseline (RT-PCR, patients)", "setting": "[2]; All patients", "value": "25 (100.0%)"},
      {"measurement": "Increase from Baseline (RT-PCR, patients)", "setting": "[2]; All patients", "value": "25 (100.0%)"},
      {"measurement": "No Increase > 0.1 from Baseline (RT-PCR, patients)", "setting": "[2]; All patients", "value": 0},
      {"measurement": "Unchanged from Baseline (RT-PCR, patients)", "setting": "[2]; All patients", "value": 0},
      {"measurement": "Decrease from Baseline (RT-PCR, patients)", "setting": "[2]; Part 1 patients, 60-76 weeks", "value": 0},
      {"measurement": "Increase > 0.1 from Baseline (RT-PCR, patients)", "setting": "[2]; Part 1 patients, 60-76 weeks", "value": "8 (100.0%)"},
      {"measurement": "Increase from Baseline (RT-PCR, patients)", "setting": "[2]; Part 1 patients, 60-76 weeks", "value": "8 (100.0%)"},
      {"measurement": "No Increase > 0.1 from Baseline (RT-PCR, patients)", "setting": "[2]; Part 1 patients, 60-76 weeks", "value": 0},
      {"measurement": "Unchanged from Baseline (RT-PCR, patients)", "setting": "[2]; Part 1 patients, 60-76 weeks", "value": 0},
      {"measurement": "Decrease from Baseline (RT-PCR, patients)", "setting": "[2]; [4]", "value": 0},
      {"measurement": "Increase > 0.1 from Baseline (RT-PCR, patients)", "setting": "[2]; [4]", "value": "17 (100.0%)"},
      {"measurement": "Increase from Baseline (RT-PCR, patients)", "setting": "[2]; [4]", "value": "17 (100.0%)"},
      {"measurement": "No Increase > 0.1 from Baseline (RT-PCR, patients)", "setting": "[2]; [4]", "value": 0},
      {"measurement": "Unchanged from Baseline (RT-PCR, patients)", "setting": "[2]; [4]", "value": 0},
      {"measurement": "Exon skipping in DMD patients", "setting": "[2]", "value": "increase over baseline levels in exon skipping"},
      {"measurement": "Exon skipping in DMD patients", "setting": "[2]; listed as Golodirsen", "value": "observed in all patients"},
      {"measurement": "Mean Change from baseline (SD), dystrophin by Western blot", "setting": "dystrophin protein; All patients", "value": "0.92 (1.01)"},
      {"measurement": "On treatment Mean % normal (SD), dystrophin by Western blot", "setting": "dystrophin protein; All patients", "value": "1.02 (1.03) % normal"},
      {"measurement": "Dystrophin protein as measured by Western blot", "setting": "dystrophin protein; DMD patients, over baseline", "value": "statistically significant increase over baseline in dystrophin protein"},
      {"measurement": "Mean Change from baseline (SD), dystrophin by Western blot", "setting": "dystrophin protein; [5]", "value": "1.29 (1.51)"},
      {"measurement": "On treatment Mean % normal (SD), dystrophin by Western blot", "setting": "dystrophin protein; [5]", "value": "1.40 (1.57) % normal"},
      {"measurement": "Mean Change from baseline (SD), dystrophin by Western blot", "setting": "dystrophin protein; [6]", "value": "0.75 (0.67)"},
      {"measurement": "On treatment Mean % normal (SD), dystrophin by Western blot", "setting": "dystrophin protein; [6]", "value": "0.84 (0.64) % normal"},
      {"measurement": "Baseline Mean % normal (SD), dystrophin by Western blot", "setting": "dystrophin protein; All patients", "value": "0.09 (0.07) % normal"},
      {"measurement": "Baseline Mean % normal (SD), dystrophin by Western blot", "setting": "dystrophin protein; [5]", "value": "0.10 (0.09) % normal"},
      {"measurement": "Baseline Mean % normal (SD), dystrophin by Western blot", "setting": "dystrophin protein; [6]", "value": "0.09 (0.06) % normal"},
      {"measurement": "Mean fiber intensity, de novo dystrophin", "setting": "dystrophin; above baseline", "value": "statistically significant increase (p<0.001) above baseline in de novo dystrophin"},
      {"measurement": "Sarcolemmal dystrophin localization", "setting": "dystrophin; listed as Golodirsen", "value": "correctly localized to the sarcolemma membrane; also recorded: observed in all patients"}
    ]},
    {"molecule": "eteplirsen", "values": [
      {"measurement": "Exon 51 skipping in vitro", "setting": "[3]", "value": "potent inducer of exon 51 skipping"},
      {"measurement": "Exon 51 skipping in vivo", "setting": "human DMD transcript", "value": "confirmed in vivo"},
      {"measurement": "Effect on the immune response", "setting": "immune response", "value": "no adverse effect on the immune response"}
    ]}
  ]
}
